Literature values as cited in US9199026B2, “Modular extracorporeal systems and methods for treating blood-borne diseases” (SOMERSET GROUP ENTERPRISES, INC., priority 2011, dated 2015).
Like-named read-outs stand apart in the source and are kept apart here.

How the values were obtained:
bacteria = conditions: for Spectrum: first line of the cell pair 'Spectrum, activity'; for activity (bactericidal / static): second line of the cell pair 'Spectrum
Listeria = conditions: carbonation volume about 2, about 35° C., pressure up to about 350 MPa, about 300 seconds
pathogen = conditions: pH 6.0 compared to pH 7.4
[1] = at acidic pH
S. aureus = conditions: basic vs slightly acidic pH
MRSA = conditions: raised oxygen levels

| Compound | Spectrum (bacteria) | activity (bactericidal / static) (bacteria) | pKa (no group stated) | other results |
| --- | --- | --- | --- | --- |
| NCC[C@H](O)C(=O)N[C@@H]1C[C@H](N)[C@@H](O[C@H]2O[C@H](CN)[C@@H](O)[C@H](O)[C@H]2O)[C@H](O)[C@H]1O[C@H]1O[C@H](CO)[C@@H](O)[C@H](N)[C@H]1O [Amikacin] | Gram negative, | bactericidal | 12.7 |  |
| CC[C@H]1OC(=O)[C@H](C)[C@@H](O[C@H]2C[C@@](C)(OC)[C@@H](O)[C@H](C)O2)[C@H](C)[C@@H](O[C@@H]2O[C@H](C)C[C@H](N(C)C)[C@H]2O)[C@](C)(O)C[C@@H](C)CN(C)[C@H](C)[C@@H](O)[C@]1(C)O [Azithromycin] |  |  | 8.1 |  |
| O=C=O [CO2, Carbon dioxide] |  |  |  | effect on inactivation of Listeria (Listeria): enhanced the inactivation of Listeria |
| CO/N=C(\C(=O)N[C@@H]1C(=O)N2C(C(=O)O)=C(CSc3nc(=O)c(=O)[nH]n3C)CS[C@H]12)c1csc(N)n1 [Ceftriaxone sodium] |  |  |  | pKa ((NH2)): 3.2 |
| CO/N=C(\C(=O)N[C@@H]1C(=O)N2C(C(=O)O)=C(COC(N)=O)CS[C@H]12)c1ccco1 [Cefuroxime sodium] |  |  | 2.5 |  |
| CCCCCCCCCC(=O)N[C@@H](Cc1c[nH]c2ccccc12)C(=O)N[C@H](CC(N)=O)C(=O)N[C@@H](CC(=O)O)C(=O)N[C@@H]1C(=O)NCC(=O)N[C@@H](CCCN)C(=O)N[C@@H](CC(=O)O)C(=O)N[C@H](C)C(=O)N[C@@H](CC(=O)O)C(=O)NCC(=O)N[C@H](CO)C(=O)N[C@@H]([C@H](C)CC(=O)O)C(=O)N[C@@H](CC(=O)c2ccccc2N)C(=O)O[C@@H]1C [Daptomycin] | Gram positive, | bactericidal |  |  |
| N#Cc1c(N2C[C@@H]3NCCO[C@H]3C2)c(F)cc2c(=O)c(C(=O)O)cn(C3CC3)c12 [Finafloxacin, finafloxacin] |  |  |  | increase in activity (lowering of the MIC) (pathogen): 4- to 8 fold |
| CC1(C)S[C@@H]2[C@H](NC(=O)Cc3ccccc3)C(=O)N2[C@H]1C(=O)O [Penicillin G] |  |  | 2.8 |  |
| CN(C)c1cc(NC(=O)CNC(C)(C)C)c(O)c2c1C[C@H]1C[C@H]3[C@H](N(C)C)C(O)=C(C(N)=O)C(=O)[C@@]3(O)C(O)=C1C2=O [Tigecycline] | Broad, | static | 4.4 |  |
| NC[C@H]1O[C@H](O[C@H]2[C@H](O)[C@@H](O[C@H]3O[C@H](CO)[C@@H](O)[C@H](N)[C@H]3O)[C@H](N)C[C@@H]2N)[C@H](N)C[C@@H]1O [Tobramycin] | Gram negative, | bactericidal |  |  |
| N[C@@H]1[C@H]2CN(c3nc4c(cc3F)c(=O)c(C(=O)O)cn4-c3ccc(F)cc3F)C[C@@H]12 [Trovafloxacin] | Broad, | bactericidal |  |  |
| Nc1nc(-n2cc(C(=O)O)c(=O)c3cc(F)c(N4CC(O)C4)c(Cl)c32)c(F)cc1F [delafloxacin] |  |  |  | fraction under a neutral form [1]: 50% |
| CN[C@H](CC(C)C)C(=O)N[C@H]1C(=O)N[C@@H](CC(N)=O)C(=O)N[C@H]2C(=O)N[C@H]3C(=O)N[C@H](C(=O)N[C@H](C(=O)O)c4cc(O)cc(O)c4-c4cc3ccc4O)[C@H](O)c3ccc(c(Cl)c3)Oc3cc2cc(c3O[C@@H]2O[C@H](CO)[C@@H](O)[C@H](O)[C@H]2O[C@H]2C[C@](C)(N)[C@H](O)[C@H](C)O2)Oc2ccc(cc2Cl)[C@H]1O [vancomycin] |  |  |  | killing S. aureus, basic versus slightly acidic conditions (S. aureus): killing S. aureus under basic conditions better than under slightly acidic conditions; effect of raising oxygen levels on resistance of MRSA (MRSA): decreases the resistance of MRSA to vancomycin |
| Colistin | Gram negative, | bactericidal | 12.1 |  |
| Gentamycin | Gram negative, | bactericidal |  |  |
| Polymixin B | G−, | bactericidal |  |  |
